Results on 3 molecules are retold here after patent US7456156B2, “Aryl boronic acids for treating obesity” (Genzyme Corporation, priority 2001, dated 2008).

For this experiment, the system named is fat absorption through lipase inhibition. As to the kind of experiment: In vivo infusion assay in rats (olive oil gavage, triglyceride recovered from intestinal contents). The note with it: rats gavaged with 4 mL olive oil emulsion with drug after 18 hour fast, intestinal contents after 8 hours; for In Vivo Infusion Assay in Rats ED50 (mg/g fat) or estimate: dose at half the maximum recoverable triglyceride. As to the method: Test compounds were dissolved in DMSO or dionized water. […] Samples were stored at −80° C. until lyophilization.
3 milliliters of hexane was added to each tube then it was capped and vortexed for 15 seconds at high speed. 3 milliliters of 1 N HCl was added then samples were subjected to wrist-action shaking for 1 hour.
The data was expressed as follows. […] The milligrams/liters values obtained from the HPLC analysis were entered.

On to “4-(14′-triethylammonium-3′-thia-1′-keto-tetradecyl)-3-phenyl-boronic acid bromide”, for which the “In Vivo Infusion Assay in Rats ED50 (mg/g fat) or estimate” value is listed as 11 mg/g fat. For the same molecule, where the note is “dose per body weight”, the “In Vivo Infusion Assay in Rats Ed50 (mg/kg body wt) or estimate” value was 82.5 mg/kg body wt.

With “4-(14′-trimethylammonium-3′-thia-1′-keto-tridecyl)-3-fluorophenyl-boronic acid bromide”, the “In Vivo Infusion Assay in Rats ED50 (mg/g fat) or estimate” value is 2 mg/g fat. Moreover, the “In Vivo Infusion Assay in Rats Ed50 (mg/kg body wt) or estimate” value (dose per body weight) was 15 mg/kg body wt.

With `C[N+](C)(C)CCCCCCCCCCCSCC(=O)c1ccc(B(O)O)cc1` [4-(14′-trimethylammonium-3′-thia-1′-keto-tetradecyl)-phenyl-boronic acid bromide], the “In Vivo Infusion Assay in Rats ED50 (mg/g fat) or estimate” value is 8 mg/g fat. Besides, the ED50 (Rattus norvegicus, po, dose per body weight, read-out: In Vivo Infusion Assay in Rats Ed50 (mg/kg body wt) or estimate) is 60 mg/kg.
